Measurements reported in patent US9593108B2, “Compounds and methods for antiviral treatment” (PTC Therapeutics, Inc., priority 2009, dated 2017).

Experiments:
[1] = system: HCV replicon RNA (GenBank Accession No. AJ242654); assay: HCV Replicon Assay (replicon RNA reduction and/or Fluc reporter signal); assay type: cell-based, Hepatitis C virus; details: Hepatitis C virus, 72 h, replicon-containing cells cultured with test compound for up to 3 days
Method in brief: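 Bicistronic replicon-containing cells cultured with compound for up to 3 days, with interferon as positive control. Inhibition quantified by replicon RNA reduction and/or Fluc reporter signal; IC50 values generally derived from replicon RNA reduction.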

Compound: CC(C)(C)NS(=O)(=O)c1ccc(-c2c(C(N)=O)c3cc(Cl)cnc3n2C2CCC2)nc1 [Cpd 327, 2-[5-(tert-butylsulfamoyl)pyridin-2-yl]-5-chloro-1-cyclobutyl-1H-pyrrolo[2,3-b]pyridine-3-carboxamide]
- IC50 [1]: < 500 nM
- melting point: 240 to 241 °C

Compound: Cc1cnc2c(c1)c(C#N)c(-c1ncc(S(=O)(=O)N[C@H](C)C(F)(F)F)cn1)n2C1CCC1 [Cpd 70, 2-(3-cyano-1-cyclobutyl-5-methyl-1H-pyrrolo[2,3-b]pyridin-2-yl)-N-[(2R)-1,1,1-trifluoropropan-2-yl]pyrimidine-5-sulfonamide]
- IC50 [1]: < 500 nM
- melting point: 186 to 188 °C

Compound: Cc1cnc2c(c1)c(C#N)c(-c1ccc(S(=O)(=O)N[C@@H](C)C(F)(F)F)cn1)n2-c1cncnc1 [Cpd 384, 6-[3-cyano-5-methyl-1-(pyrimidin-5-yl)-1H-pyrrolo[2,3-b]pyridin-2-yl]-N-[(2S)-1,1,1-trifluoropropan-2-yl]pyridine-3-sulfonamide]
- IC50 [1]: < 500 nM
- melting point: 231 to 233 °C

Compound: CCOc1cnc2c(c1)c(C#N)c(-c1ccc(S(=O)(=O)N[C@@H](C)C(F)(F)F)cn1)n2C1CCC1 [Cpd 202, 6-(3-cyano-1-cyclobutyl-5-ethoxy-1H-pyrrolo[2,3-b]pyridin-2-yl)-N-[(2S)-1,1,1-trifluoropropan-2-yl]pyridine-3-sulfonamide]
- IC50 [1]: < 500 nM
- melting point: 181 to 182 °C

Compound: CCc1cnc2c(c1)c(C#N)c(-c1ccc(S(=O)(=O)NC(CF)CF)cc1)n2C1CCC1 [Cpd 190, 4-(3-cyano-1-cyclobutyl-5-ethyl-1H-pyrrolo[2,3-b]pyridin-2-yl)-N-(1,3-difluoropropan-2-yl)benzenesulfonamide]
- IC50 [1]: < 500 nM
- melting point: 165 to 171 °C

Compound: C[C@H](NS(=O)(=O)c1ccc(-c2c(C#N)c3cc(C(F)(F)F)cnc3n2C2CCC2)nc1)C(F)(F)F [Cpd 227, 6-[3-cyano-1-cyclobutyl-5-(trifluoromethyl)-1H-pyrrolo[2,3-b]pyridin-2-yl]-N-[(2S)-1,1,1-trifluoropropan-2-yl]pyridine-3-sulfonamide]
- IC50 [1]: < 500 nM
- melting point: 183 to 185 °C

Compound: Cc1cnc2c(C#N)c(-c3ccc(S(=O)(=O)N[C@@H](C)C(F)(F)F)cn3)n(-c3cscn3)c2c1 [Cpd 468, 6-[3-cyano-6-methyl-1-(1,3-thiazol-4-yl)-1H-pyrrolo[3,2-b]pyridin-2-yl]-N-[(2S)-1,1,1-trifluoropropan-2-yl]pyridine-3-sulfonamide]
- IC50 [1]: < 500 nM
- melting point: 244 to 245 °C

Compound: Cc1ccc2c(C#N)c(-c3ccc(S(=O)(=O)NC(C)C)cc3)n(CC3CC3)c2n1 [Cpd 5, 4-[3-cyano-1-(cyclopropylmethyl)-6-methyl-1H-pyrrolo[2,3-b]pyridin-2-yl]-N-(propan-2-yl)benzenesulfonamide]
- IC50 [1]: < 500 nM
- melting point: 175 to 177 °C

Compound: NC(=O)c1c(-c2ccc(S(=O)(=O)NC3(C(F)(F)F)CC3)cn2)n(C2CCC2)c2ncc(C3CC3)cc12 [Cpd 374, 1-cyclobutyl-5-cyclopropyl-2-(5-{[1-(trifluoromethyl)cyclopropyl]sulfamoyl}pyridin-2-yl)-1H-pyrrolo[2,3-b]pyridine-3-carboxamide]
- IC50 [1]: < 500 nM

Compound: C[C@H](NS(=O)(=O)c1ccc(-c2c(C#N)c3cc(S(C)(=O)=O)cnc3n2C2CCC2)nc1)C(F)(F)F [Cpd 370, 6-[3-cyano-1-cyclobutyl-5-(methylsulfonyl)-1H-pyrrolo[2,3-b]pyridin-2-yl]-N-[(2S)-1,1,1-trifluoropropan-2-yl]pyridine-3-sulfonamide]
- IC50 [1]: < 500 nM

Compound: COc1ncc2c(C#N)c(-c3ccc(S(=O)(=O)N[C@H](C)C(F)(F)F)cn3)n(C3CCC3)c2n1 [Cpd 39, 6-(5-cyano-7-cyclobutyl-2-methoxy-7H-pyrrolo[2,3-d]pyrimidin-6-yl)-N-[(2R)-1,1,1-trifluoropropan-2-yl]pyridine-3-sulfonamide]
- IC50 [1]: 2000 to 5000 nM
